Data reported in paper PMC3107525 (The Journal of neuroscience : the official journal of the …, 2011).
Read-outs that look alike come from different tables or passages of the source.

Key:
[1] = target: SERT (Rattus norvegicus, UniProt P31652); format: in vivo; conditions: exogenously applied, anesthetized rats, mean ± SEM, n = 10
[2] = target: T1, hSERT WT (Homo sapiens, UniProt P31645)
[3] = target: T2, hSERT Y95F (Homo sapiens, UniProt P31645, Y95F)
[4] = target: T1, hSERT WT; remark: listed apart in the source
[5] = target: T1, hSERT WT; conditions: 20 μM 5HT or 2 mM DA extracellular
[6] = target: T2, hSERT Y95F; remark: listed apart in the source
[7] = target: T1, hSERT WT; conditions: 0.2-0.5 nM [125I]RTI-55, 1 hour on ice
[8] = target: T1, hSERT WT; conditions: gluconate substituted for Cl-
[9] = target: hSERT Y95F/C109A/I179C (Homo sapiens, UniProt P31645, C109A/I179C/Y95F); assay: Uptake with MTSET-sensitive mutant in COS-7 cells; format: cell-based
[10] = target: T1, hSERT WT; remark: listed apart in the source
[11] = target: hSERT D98G (Homo sapiens, UniProt P31645, D98G)
[12] = test system: NCCc1ccc(O)c(O)c1; assay: cells, lysate or membranes; conditions: other: substrate uptake, COS-7, 96 well plates, 10 min, room temperature; pH 7.4
[13] = target: DAT (Rattus norvegicus, UniProt P23977); format: in vivo; conditions: 10 mg/kg i.p., dorsal striatum
[14] = read-out: IC50 for inhibition of [3H]5HT uptake
[15] = read-out: IC50 for inhibition of [3H]DA uptake
[16] = substrate uptake, COS-7, 96 well plates, 10 min, room temperature

Chain of SERT (P31652 whole entry): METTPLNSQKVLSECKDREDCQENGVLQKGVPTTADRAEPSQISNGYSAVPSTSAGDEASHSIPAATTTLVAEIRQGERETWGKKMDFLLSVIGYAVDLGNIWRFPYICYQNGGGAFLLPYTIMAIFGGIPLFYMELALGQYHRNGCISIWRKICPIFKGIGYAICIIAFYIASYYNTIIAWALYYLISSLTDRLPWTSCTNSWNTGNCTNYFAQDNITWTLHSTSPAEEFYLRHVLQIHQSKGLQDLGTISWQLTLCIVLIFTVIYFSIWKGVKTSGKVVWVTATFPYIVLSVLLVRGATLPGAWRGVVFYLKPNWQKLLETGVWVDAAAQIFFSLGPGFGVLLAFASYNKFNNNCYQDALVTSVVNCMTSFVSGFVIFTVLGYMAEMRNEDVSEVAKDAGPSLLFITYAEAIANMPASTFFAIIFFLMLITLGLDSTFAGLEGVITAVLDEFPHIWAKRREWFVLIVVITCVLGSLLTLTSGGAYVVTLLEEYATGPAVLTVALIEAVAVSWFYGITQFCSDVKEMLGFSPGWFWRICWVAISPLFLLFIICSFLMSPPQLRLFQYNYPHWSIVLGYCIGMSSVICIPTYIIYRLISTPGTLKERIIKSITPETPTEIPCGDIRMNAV
Chain of DAT (P23977 whole entry): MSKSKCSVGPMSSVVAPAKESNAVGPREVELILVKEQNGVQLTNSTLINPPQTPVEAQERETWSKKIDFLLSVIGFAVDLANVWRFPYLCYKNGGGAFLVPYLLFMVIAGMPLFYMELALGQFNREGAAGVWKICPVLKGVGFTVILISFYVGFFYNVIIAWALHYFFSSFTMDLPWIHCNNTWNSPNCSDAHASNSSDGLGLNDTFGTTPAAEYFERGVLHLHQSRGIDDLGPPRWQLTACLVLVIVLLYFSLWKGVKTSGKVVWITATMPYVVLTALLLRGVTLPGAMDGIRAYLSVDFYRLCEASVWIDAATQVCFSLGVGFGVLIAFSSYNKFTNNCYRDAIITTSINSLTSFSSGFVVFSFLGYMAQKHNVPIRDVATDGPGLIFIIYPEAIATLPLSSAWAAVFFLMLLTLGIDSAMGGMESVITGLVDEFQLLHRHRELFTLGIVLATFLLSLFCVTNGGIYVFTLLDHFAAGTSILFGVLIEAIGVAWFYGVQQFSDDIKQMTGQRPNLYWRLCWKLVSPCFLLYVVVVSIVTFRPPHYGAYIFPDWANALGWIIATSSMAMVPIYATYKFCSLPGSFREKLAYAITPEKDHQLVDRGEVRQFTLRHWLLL

NCCc1c[nH]c2ccc(O)cc12 [5HT, serotonin]
baseline clearance time (T80) [1]: 73.4 ± 8.3 s

CNC(C)Cc1ccc2c(c1)OCO2 (centres unmarked) [MDMA, 3,4-methylenedioxymethamphetamine]
IC50 [2, 14]: 4400 ± 840 nM | IC50 [2, 15]: 2700 ± 330 nM | IC50 [3, 14]: 3100 ± 430 nM | IC50 [3, 15]: 940 ± 110 nM

NCCc1ccc(O)c(O)c1 [DA, dopamine]
mode of inhibition of 5HT uptake [4]: competitive inhibitor | baseline clearance time (T80) [1]: 79.5 ± 4.1 s | efflux of preloaded [3H]5HT [5]: substantial and comparable efflux | efflux of preloaded [3H]DA [5]: no significant efflux | Vmax [6, 16]: 2.4 ± 0.52 pmol/well/min | Vmax for DA transport relative to Vmax for 5HT transport ([6]; times higher): 4–5 times | relation of 5HT and DA binding sites [7]: mutually exclusive | apparent affinity for Cl- in substrate transport [8]: ~ 100 mM | transport of DA ([9]; before or after MTSET treatment): < 2% | Vmax [10, 16]: 2.7 ± 0.65 pmol/well/min | Vmax for DA transport relative to Vmax for 5HT transport ([10]; times higher): 4–5 times | DA uptake activity [11]: no DA uptake activity

C[N+](C)(C)CCSS(C)(=O)=O [MTSET, [2-(trimethylammonium)ethyl] methane-thiosulfonate]
decrease of 5HT uptake activity ([9]; 10 mM MTSET, 10 min): > 90%

hSERT WT (Homo sapiens)
Km [12]: 78 ± 5.7 µM

CN(C)CCCC1(c2ccc(F)cc2)OCc2cc(C#N)ccc21 (centres unmarked) [Citalopram, citalopram]
effect on DA clearance time (T80) [13]: unaffected
